Results reported in patent publication US6699459B2, “Methods of treating lung inflammation” (The Board of Regents of the University of Texas System, priority 2001, dated 2004).
“Also recorded” adds a separate entry of the source.

Experiments:
IRF-3 = test: Western blot of IRF-3 in total cell lysates of RSV-infected A549 cells; type: cell-based, human; details: whole cell extracts, RSV 12 hours, 400 μM
Description: Western Immunoblot. Total cell lysates and cytoplasmic and nuclear proteins were prepared as previously described, fractionated by SDS-PAGE and transferred to PVDF membrane (20). Membranes were blocked with 5% albumin in TBS-Tween and incubated overnight with a rabbit polyclonal antibody to IRF-1, -3 and -7 (Santa Cruz Biotech, Santa Cruz, Calif.). For secondary detection, a horseradish-coupled anti-rabbit or anti-mouse antibody was used in the enhanced chemiluminescence assay (Amersham Pharmacia Biotec, Arlington Heights, Ill.).

ROS = test: H2O2-induced ROS production in A549 cells (DCF oxidation); type: cell-based, human; details: 200 μM H2O2, 400 μM BHA
Description: Assesment of intracellular ROS generation. A549 cells were grown in 96-well tissue culture plates and infected with RSV, at 0.1, 0.5 and 1 multiplicity of infection (MOI). At different times post-infection, cells were washed with Hank's Balanced Salt Solution (HBSS) and loaded with 10 μM 2,7 dichlorofluorescein diacetate (DCF-DA) in HBSS medium containing 25 mM HEPES, pH 7.4, for 30 minutes at 37° C. The cells were then washed twice and fluorescence intensity was determined at 485 nm excitation and 590 nm emission, using an automated fluorescence reader (Flurocount, Hewlett-Packard Instruments, IL). For the experiments in which H2O2 was used as a stimulus for ROS production, cells were preloaded with […] DCF-DA for 30 minutes, washed and then fluorescence intensity was measured at different times following addition of H2O2. Measurements were performed in triplicate and results expressed as fluorescence mean±S.D. of n=3 independent experiments.

RANTES = test: RSV-induced RANTES secretion in A549 cells (ELISA); type: cell-based, human; details: A549 cells
Description: Cell culture and infection of epithelial cells with RSV. A549, human alveolar type II-like epithelial cells (ATCC, Manassas, Va.), were maintained in F12K medium containing 10% (v/v) fetal bovine serum (FBS), 10 mM glutamine, 100 IU/ml penicillin and 100 μg/ml streptomycin. Small alveolar epithelial cells (SAE) were obtained from Clonetics (San Diego, Calif.) and grown according to the company instructions. Cell monolayers were infected with RSV at multiplicity of infection (MOI) of 1 (unless otherwise stated), as described (17). An equivalent amount of a 20% sucrose solution was added to uninfected A549 cells, as a control. For the antioxidant experiments, cells were pretreated with the antioxidants for one hour and then infected in the presence of the antioxidants. Since BHA was diluted in ethanol, equal amounts of ethanol were added to untreated cells, as a control. Total number of cells, cell viability and viral replication, following antioxidant treatment, were measured by trypan blue exclusion and by plaque assay, respectively. RANTES ELISA. Immunoreactive RANTES was quantitated by a double antibody ELISA kit (DuoSet, R&D Systems, Minneapolis, Minn.) following the manufacturer's protocol.

human RANTES promoter = test: RANTES promoter luciferase reporter in RSV-infected A549 cells; type: cell-based; details: RSV 24 hours, 400 μM
Excerpt: Plasmid construction and cell transfection. A fragment of the human RANTES promoter spanning from −220 to +55 nucleotides (nt), relative to the mRNA start site designated +1 was cloned into the luciferase reporter gene vector pGL2 (Promega, Madison, Wis.) and defined as pGL2-220. Site mutations of the RANTES ISRE in the context of pGL2-220 plasmid were introduced by PCR using the following upstream and downstream mutagenic primers (mutations in lower cases): […]
Logarithmically growing A549 cells were transfected in triplicate in 60 mm petri dishes by DEAE-Dextran, as previously described (20). Cells were incubated in 2 ml of HEPES buffered Dulbecco's modified Eagle's medium (DMEM) (10 mM Hepes, pH 7.4) containing 20 μl of 60 mg/ml DEAE-Dextran (Amersham Pharmacia Biotec, Arlington Heights, Ill.) premixed with 6 μg of RANTES-pGL2 plasmids and 1 μg cytomegalovirus (CMV)-β galactosidase internal control plasmid. After 3 hours, media was removed and 0.5 ml of 10% (v/v) DMSO in phosphate buffered saline (PBS) was added to the cells for 2 minutes. Cells were washed with PBS and cultured overnight in 10% FBS/DMEM. The next morning, cells were infected with RSV and at 24 hours post-infection cells were lysed to measure independently luciferase and β-galactosidase reporter activity, as previously described (20). Luciferase was normalized to the internal control β-galactosidase activity. […]

β-actin = β-actin mRNA (Northern blot) in A549 cells; type: cell-based, human; details: 400 μM, compared to untreated cells
Description: Northern Blot. Total RNA was extracted from control and infected A549 cells by the acid guanidium thiocyanate-phenol chloroform method (18). Twenty micrograms of RNA were fractionated on a 1.2% agarose-formaldehyde gel, transferred to nylon membranes and hybridized to a radiolabeled RANTES, IRF-1, -3 and -7 cDNAs, as previously described (19). Hybridization temperature for all probes was 55° C. After washing, membranes were exposed for autoradiography using Kodak XAR film at −70° C. using intensifying screens. After exposure, membranes were stripped and rehybridized with a β-actin probe.

RANTES mRNA = test: Northern blot of RANTES mRNA in RSV-infected A549 cells; type: cell-based, human; details: 400 μM
Description: Cell culture and infection of epithelial cells with RSV. A549, human alveolar type II-like epithelial cells (ATCC, Manassas, Va.), were maintained in F12K medium containing 10% (v/v) fetal bovine serum (FBS), 10 mM glutamine, 100 IU/ml penicillin and 100 μg/ml streptomycin. Small alveolar epithelial cells (SAE) were obtained from Clonetics (San Diego, Calif.) and grown according to the company instructions. Cell monolayers were infected with RSV at multiplicity of infection (MOI) of 1 (unless otherwise stated), as described (17). An equivalent amount of a 20% sucrose solution was added to uninfected A549 cells, as a control. For the antioxidant experiments, cells were pretreated with the antioxidants for one hour and then infected in the presence of the antioxidants. Since BHA was diluted in ethanol, equal amounts of ethanol were added to untreated cells, as a control. Total number of cells, cell viability and viral replication, following antioxidant treatment, were measured by trypan blue exclusion and by plaque assay, respectively. Northern Blot. Total RNA was extracted from control and infected A549 cells by the acid guanidium thiocyanate-phenol chloroform method (18). Twenty micrograms of RNA were fractionated on a 1.2% agarose-formaldehyde gel, transferred to nylon membranes and hybridized to a radiolabeled RANTES, IRF-1, -3 and -7 cDNAs, as previously described (19). […]

COc1ccc(O)c(C(C)(C)C)c1 [BHA, butylated hydroxyanisol]
RSV-induced IRF-3 mobility shift (IRF-3): almost completely abolished
H2O2-induced ROS production (ROS): almost completely inhibited
effectiveness in reducing RSV-induced RANTES secretion, compared among the antioxidants (RANTES): most effective
RSV-induced RANTES production (RANTES; 400 μM, 24 hours, ELISA): significantly block
RSV-induced luciferase activity (RANTES promoter) (human RANTES promoter): almost completely abolished
levels of the housekeeping gene β-actin (β-actin): does not affect; also recorded: not systematically reduced
RSV-induced RANTES mRNA induction (RANTES mRNA; 6 and 12 hours post-infection): completely inhibited
RSV-induced RANTES mRNA induction (RANTES mRNA; 24 hours post-infection): greatly reduced
